Patent US20040023901A1, “Nucleoside 5'-monophosphate mimics and their prodrugs” (priority 2002, published 2004)
Like-named read-outs stand apart in the source and are kept apart here.

Legend:
[1] = bovine
Method: (§15) Fetal calf serum purchased from HyClone Corporation was mixed 1:1 with each compound containing Tris-HCl buffer and MgCl2. Typically the total volume used for the experiment was 500 μl.
(§16) The final concentrations of the reaction components were as follows:
(§17) The reaction mixtures were made up and incubated at 37° C. At appropriate times aliquots of 25 μl were removed and added to 65 μl ice-cold methanol. These solutions were incubated for at least one hour at −20° C. and typically overnight. After incubation samples were centrifuged for at least 20 minutes at high speed in a microcentrifuge. The supernatant was transferred to a clean tube and the extract was dried under vacuum in a LabConco Centrivap Concentrator. The dried extracts were resuspended in dH2O and filtered to remove particulate before analysis on reverse phase HPLC.
(§18) The reverse phase HPLC columns used for the analysis were either a Phenomenex C18 Aqua column (2×100 mm) or the Phenomenex C18 Aqua column (3×150 mm) used with the appropriate guard column. The HPLC was run at 0.2 ml/min (for the 2×100 mm column) or at 0.5 ml/min (for the 3×150 mm column) with the following buffer system: 5 mM tetrabutylammonium acetate, 50 nM ammonium phosphate, and an acetonitrile gradient running from 5% up to as high as 60%. The amount of remaining parent compound at each time point was used to determine the half-life of the compound. […] Unmodified nucleoside monophosphates were used as positive controls.

[2] = biological target: purified human type II IMPDH (Homo sapiens, UniProt P12268); assay: Assay for inhibition of IMPDH activity (human type II); type: biochemical; conditions: 50 uM IMP, 150 uM NAD, 25° C.
Method: (§1) The assays employed to measure the inhibition of inosine monophosphate dehydrogenase (IMPDH) activity are described below. The effectiveness of the compounds of the present invention as inhibitors of IMPDH enzymes was determined in the following assays. This assay was used to measure the ability of the nucleotide mimics of the present invention to inhibit the enzymatic reaction catalyzed by IMPDH enzymes. The assay is useful for measuring the activity of IMPDH from several organisms, including human, fungal, and bacterial isoforms. In the enzymatic reaction, the oxidation of inosine 5′-monophosphate (IMP) to xanthosine 5′-monophosphate (XMP) is coupled to the reduction of nicotinamide adenine dinucleotide (NAD). This reaction is monitored at 340 nm using a UV/VIS spectrophotometer or at 474 nm using a fluorometer (excitation wavelength=344 nm). This assay is a modification of a reported method (W. Wang and L. Hedstrom, “A Potent ‘Fat Base’ Nucleotide Inhibitor of IMP Dehydrogenase,” Biochemistry 1998, 37, 11949-52).
(§2) Assay Buffer Conditions: (200 uL-total/reaction)
(§3) 30 nM purified human type II IMPDH, or
(§4) 7.5 nM purified Candida albicans IMPDH
(§5) The compounds were tested at various concentrations up to 500 uM final concentration. The standard IMPDH assay is performed in a 96-well plate (Corning). An appropriate volume of assay buffer, containing the substrates IMP and NAD, was pipetted into the plate wells. Nucleoside derivatives of the present invention were added to the reactions at the desired concentrations. The reactions were initiated by the addition of enzyme. The reactions were allowed to proceed for 5 minutes at 25° C. The production of NADH was monitored at 340 nm on a microplate spectrophotometer (Molecular Devices Corp, Sunnyvale, Calif.). Initial velocity data (mA min^−1) was collected and fit to the equations below. Blank reactions were prepared in parallel with the test reactions in which enzyme was omitted from the reactions, substituted by an appropriate volume of enzyme diluent.
(§6) The percentage of inhibition was calculated according to the following equation:
(§7) % Inhibition=[1−(mA min^−1 in test reaction−mA min^−1 in blank)/(mA min^−1 in control reaction−mA min^−1 in blank)]×100.
(§8) Each inhibitor was titrated over an appropriate range of concentrations, and inhibition constants were determined using the following equations where v=initial velocity, Vm=maximal velocity, S=substrate, I=inhibitor, Km=Michaelis constant, and Ki=inhibition constant:
(§9) Michaelis-Menten Equation: […]
(§10) Competitive Inhibition Equation:
(§11) Inhibition constants (Ki) for irreversible inhibitors of IMPDH were determined using the following three equations where kobs=observed rate constant, t=time, A=absorbance at time t, A0=initial absorbance at time zero, V0=initial rate, S=substrate, I=inhibitor, k2=[…] rate constant, Km=Michaelis constant, Ki, app=apparent inhibition constant, and Ki=inhibition constant:
(§12) Irreversible Inhibition Equations 1-3:
(§13) A−A0=V0[1−exp(−kobst)] (equation 1)
(§14) Kobs=k2[I]/(Ki, app+[I]) (equation 2)

[3] = biological target: purified Candida albicans IMPDH (Candida albicans, UniProt O00086); assay: Assay for inhibition of IMPDH activity (C. albicans); type: biochemical; conditions: for Ki: C. albicans IMPDH, 50 uM IMP, 150 uM NAD, 25° C.; for inhibition at 100 µM: read-out: % Inhibition at 100 μM C. albicans
Method: as §1, §2, §3, §4, §5, §6, §7, §8, §9, §10, §11, §12, §13, §14

[4] = in vitro; conditions: bovine, 10% (v/v) fetal calf serum, pH 7.4
Method: as §15, §16, §17, §18

[5] = Serum stability assessment in fetal calf serum; conditions: 10% (v/v) fetal calf serum, 37° C., 500 μM nucleotide mimic, time points through 24 hours
Method: as §15, §16, §17, §18

Sequence of purified Candida albicans IMPDH (O00086 whole entry): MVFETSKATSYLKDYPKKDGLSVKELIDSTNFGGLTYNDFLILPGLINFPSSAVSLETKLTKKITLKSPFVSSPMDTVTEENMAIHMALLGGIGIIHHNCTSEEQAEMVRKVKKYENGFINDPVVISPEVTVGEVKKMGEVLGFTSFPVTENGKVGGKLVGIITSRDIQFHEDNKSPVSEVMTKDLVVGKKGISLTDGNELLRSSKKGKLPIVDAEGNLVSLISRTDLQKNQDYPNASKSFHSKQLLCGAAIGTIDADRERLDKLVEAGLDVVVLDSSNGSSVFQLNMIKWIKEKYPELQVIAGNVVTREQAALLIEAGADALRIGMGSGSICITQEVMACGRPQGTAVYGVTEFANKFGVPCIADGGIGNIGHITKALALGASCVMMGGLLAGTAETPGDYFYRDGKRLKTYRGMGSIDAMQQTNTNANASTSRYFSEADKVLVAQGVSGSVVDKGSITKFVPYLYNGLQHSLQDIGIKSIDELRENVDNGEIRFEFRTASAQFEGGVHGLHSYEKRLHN

| Compound | Ki [2] [µM] | Ki [3] [µM] | also measured |
| --- | --- | --- | --- |
| 5-Ethynyl-1-(5-methylphopsphonyl-β-D-ribofuranosyl)imidazole-4-carboxamide [Compound 10] | – | – | Serum t1/2 [1]: >8 h |
| NC(=O)c1ncn([C@@H]2O[C@H](COP(=O)(O)S)[C@H](O)C2O)n1 (stereo partly drawn) [Compound 1, 1-β-D-ribofuranosyl-1,2,4-triazole-3-carboxamide 5′-phosphothioate] | 0.94 | 1.34 | half-life at 500 μM [4]: 18 h |
| C#Cc1c(C(N)=O)ncn1[C@@H]1O[C@H](COP(=O)(O)S)[C@H](O)C1O (stereo partly drawn) [Compound 2, 5-Ethynyl-1-(1-D-ribofuranosyl)imidazole-4-carboxamide 5′-phosphorothioate] | 34.2 | – | inhibition at 100 µM [3]: 82% |
| NC(=O)c1ncn([C@@H]2O[C@H](COCP(=O)(O)O)[C@@H](O)[C@H]2O)n1 [Compound 19, 1-[5-O-(Dihydroxyphosphinyl)methyl-β-D-ribofuranosyl]-1,2,4-triazole-3-carboxamide] | 85 | – | – |
| NC(=O)c1ncn([C@@H]2O[C@H](CP(=O)(O)O)[C@@H](O)[C@H]2O)n1 [Compound 39, 1-[5-Deoxy-5-(dihydroxyphosphinyl)-β-D-ribofuranosyl]-1,2,4-triazole-3-carboxamide] | 1.82 | 1.48 | – |
| NC(=O)c1ncn([C@@H]2O[C@H](C[PH](=O)O)[C@H](O)C2O)n1 (stereo partly drawn) [Compound 40, 1-[5-Deoxy-5-(hydroxyl-H-phosphinyl)-β-D-ribofuranosyl]-11,24-triazole-3-carboxamide] | – | – | half-life at 500 μM [4]: > 24 h |
| NC(=O)c1ncn([C@@H]2O[C@H](CP(=O)(O)O)[C@H](O)C2O)c1O (stereo partly drawn) [Compound 44, 4-Carbamoyl-1-[5-deoxy-5-(dihydroxyphosphinyl)-β-D-ribofuranosyl]-1,3-imidazolium-5-olate] | 7.92 | – | inhibition at 100 µM [3]: 98.1% |
| NC(=O)c1ncn([C@@H]2O[C@H](CC(F)(F)P(=O)(O)O)[C@H](O)C2O)n1 (stereo partly drawn) [Compound 48] | 27.1 | 20.4 | half-life at 500 μM [4]: > 24 h |
| NC(=O)c1ncn([C@@H]2O[C@H](CC(F)(F)P(=O)(O)O)[C@H](O)C2O)c1O (stereo partly drawn) [Compound 50, 4-Carbamoyl-1-[5,6-dideoxy-6-(dihydroxyphosphinyl)-6,6-difluoro-β-D-allofuranosyl]-1,3-imidazolium-5-olate] | 2.04 | – | inhibition at 100 µM [3]: 71.5% |
| NC(=O)c1ncn([C@@H]2O[C@H](CO[PH](O)=S)[C@H](O)C2O)n1 (stereo partly drawn) [Compound 53, 1-[5-O-(H-Thiophosphonyl)-β-D-ribofuranosyl]-1,2,4-triazole-3-carboxamide] | 34.7 | 10.7 | – |
| C#Cc1c(C(N)=O)ncn1[C@@H]1O[C@H](COP(=O)(O)O)[C@@H](O)[C@H]1O [EICAR 5′-monophosphate] | – | – | Serum t1/2 [5]: 3 h |
| NC(=O)c1ncn([C@@H]2O[C@H](COP(=O)(O)O)[C@@H](O)[C@H]2O)n1 [Ribavirin 5′-monophosphate] | – | – | Serum t1/2 [5]: 6 h |
